Measured values: article PMC9354705, “Characterization of TR‐107, a novel chemical activator of the human mitochondrial protease ClpP” (Pharmacology Research & Perspectives, 2022)

Test system: MDA‐MB‐231 xenografts
Assay: MDA‐MB‐231 mouse xenograft study
Format: in vivo
Method: Mitochondrial DNA copy number was determined as previously described.[23] Briefly, genomic DNA was isolated from tissue lysate with DNeasy Blood & Tissue kit (Qiagen, 69504). mtDNA copy number was determined by quantitative PCR with a human mitochondrial to nuclear DNA ratio kit (Takara Bio USA, 7246).
Female athymic nude mice (Crl:NU[Ncr]‐Foxn1^ nu , Charles River) were 8 weeks old with body weight (BW) range of 19.0–27.0 g on Day 1 of the study. Animals were fed ad libitum water (reverse osmosis, 1 ppm Cl) and NIH 31 Modified and Irradiated Lab Diet® consisting of 18.0% crude protein, 5.0% crude fat, and 5.0% crude fiber. Mice were housed on irradiated Enrich‐o'cobs™ Laboratory Animal Bedding in static microisolators on a 14‐h light cycle at 20–22°C and 40%–60% humidity. Charles River Discovery Services North Carolina (CR Discovery Services) specifically complies with the recommendations of the Guide for Care and Use of Laboratory Animals with respect to restraint, husbandry, surgical procedures, feed and fluid regulation, and veterinary care. The animal care and use program at CR Discovery Services is accredited by the Association for Assessment and Accreditation of Laboratory Animal Care International.
MDA‐MB‐231 human breast adenocarcinoma cells were grown to mid‐log phase in RPMI‐1640 supplemented with 10% FBS, 2 mM glutamine, 100 units/ml sodium penicillin G, 25 μg/ml gentamicin, 100 μg/ml streptomycin sulfate, 0.075% sodium bicarbonate, 10 mM HEPES, and 1 mM sodium pyruvate. Cells were cultures at 37°C and 5% CO2.
MDA‐MB‐231 cells were harvested during exponential growth and resuspended in cold, sterile DPBS. Each animal received an orthotopic injection of 5 × 10^6 cells (0.05 ml volume) into the mammary fat pad. Tumor growth was monitored as the average tumor size approached the target range of 60–100 mm^3. Tumors were measured in two dimensions via caliper and volume was calculated using the following formula: Tumor Volume=w^2×l/2, where w is the width and l is the length (mm) of the tumor. Tumor weight was estimated based on the assumption that 1 mg = 1 mm^3. Fourteen days later (Day 1), animals were sorted into groups (n = 10 per group) with a mean tumor volume of 70–73 mm^3.
Compounds were administered orally (p.o.) in a dosing volume of 10 ml/kg. Twice daily doses (B.I.D) were administered at least 6 h apart.
Tumors were measured using calipers biweekly and animals were euthanized upon reaching tumor volume > 1500 mm^3 or on the final study day (Day 36), whichever came first. Time to endpoint (TTE) for analysis was calculated for animals that exited the study due to tumor volume using the following equation: TTE=log10endpoint volume−b/m, where TTE is expressed in days, endpoint volume is expressed in mm^3, b is the y‐intercept, and m is the slope of the line obtained by linear regression of a log‐transformed tumor growth data set. […] In instance where this equation yields a TTE day preceding the day prior to reaching the endpoint or exceeding the day of reaching the endpoint, a linear interpolation was performed to approximate TTE. Animals documented as having died of nontreatment‐related causes due to accident or unknown etiology were excluded from TTE calculations and all further analysis. Animals documented having died due to treatment‐related deaths or nontreatment‐related due to metastasis were assigned a TTE value equivalent to the day of death. Treatment outcome was evaluated from tumor growth delay (TGD) defined as the increase in the median TTE in the treatment group compared with the control group.
On Day 36, all animals in all groups were sampled. Tumors were excised, divided into two parts, and weighed. Part 1 was preserved in a 5 ml fixative solution (4% formaldehyde, 2% glutaraldehyde in 0.1 M cacodylate buffer) and stored at 4°C. Part 2 was trimmed to be less than 0.5 cm in at least one dimension, submerged in five volumes of RNAlater solution, and stored at −20°C.

N#Cc1cccc(CN2CCc3ncn(Cc4ccc(Cl)cc4)c(=O)c3C2)c1 [TR‐107]
reduction in tumor volume (4 mg/kg (G2) and 8 mg/kg (G3) oral, day 26, vs vehicle): ~ 50%
increase in median survival (4 mg/kg and 8 mg/kg oral, both groups, vs vehicle): ~ 35%
mitochondrial DNA in tumor lysates (8 mg/kg (G3) vs control, end of study): substantial loss
PYCR2 and HMGCS1 protein levels in tumor lysates (8 mg/kg vs vehicle): significantly reduced
TFAM in xenograft tumor lysates (immunoblot) (8 mg/kg vs vehicle): significant loss
weight loss (even at the highest dosing regimen): less than 5%
tolerability (oral 4 and 8 mg/kg): well tolerated
